# Results as given in ChEMBL document CHEMBL4842329 (Eur J Med Chem, 2021).
# Target: T1, Sodium-dependent serotonin transporter (Homo sapiens, UniProt P31645)
# Assay: biochemical
# Format: cell-based, HEK293
# T1 sequence (P31645 whole entry): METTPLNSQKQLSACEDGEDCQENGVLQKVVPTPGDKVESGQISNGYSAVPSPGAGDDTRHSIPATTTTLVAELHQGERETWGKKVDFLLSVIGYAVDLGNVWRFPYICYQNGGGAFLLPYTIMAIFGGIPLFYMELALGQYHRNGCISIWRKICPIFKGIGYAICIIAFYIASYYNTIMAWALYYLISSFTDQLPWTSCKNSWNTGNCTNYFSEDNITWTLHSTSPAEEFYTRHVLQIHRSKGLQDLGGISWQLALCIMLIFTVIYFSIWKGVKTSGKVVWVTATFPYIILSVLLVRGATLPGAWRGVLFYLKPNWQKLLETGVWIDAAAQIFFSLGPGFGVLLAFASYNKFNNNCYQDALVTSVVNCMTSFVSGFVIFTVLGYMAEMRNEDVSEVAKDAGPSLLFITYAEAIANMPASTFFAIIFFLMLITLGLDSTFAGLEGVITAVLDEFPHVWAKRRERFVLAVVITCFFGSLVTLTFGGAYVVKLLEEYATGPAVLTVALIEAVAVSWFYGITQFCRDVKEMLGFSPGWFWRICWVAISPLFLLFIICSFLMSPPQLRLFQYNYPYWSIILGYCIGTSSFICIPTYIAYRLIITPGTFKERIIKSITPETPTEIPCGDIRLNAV
row,Structure (SMILES),Ki [nM]
1,COCCCC/C(=N\OCCN)c1ccc(Cl)c(F)c1,62
2,COCCCC/C(=N\OCCN)c1ccc(Br)cc1F,137
3,COCCCC/C(=N\OCCN)c1ccc(F)cc1,1620
4,CNCCC(Oc1cccc(Cl)c1)c1ccccc1 (stereo not given),66
5,CNCCC(Oc1ccccc1)c1ccccc1 (stereo not given),1460
6,CNCCC(Oc1cccc(F)c1)c1ccccc1 (stereo not given),349
7,COCCCC/C(=N\OCCN)c1ccc(Cl)cc1F,202
8,CNCCC(Oc1ccc(F)cc1)c1ccccc1 (stereo not given),543

# Continued, values first:
row,Ki [nM],Structure (SMILES)
1,14,CNCCC(Oc1ccc(I)cc1)c1ccccc1 (stereo not given)
2,21,COCCCC/C(=N\OCCN)c1ccc(Br)c(F)c1
3,5,CNCCC(Oc1ccc(Cl)c(Cl)c1)c1ccccc1 (stereo not given)
4,61,COCCCC/C(=N\OCCN)c1ccc(Cl)cc1
5,31,CNCCC(Oc1ccc(Cl)c(F)c1)c1ccccc1 (stereo not given)
6,23,CNCCC(Oc1ccc(I)cc1F)c1ccccc1 (stereo not given)
7,9,COCCCC/C(=N\OCCN)c1ccc(Cl)c(Cl)c1
8,55,CNCCC(Oc1ccc(Cl)cc1)c1ccccc1 (stereo not given)
9,41,CNCCC(Oc1ccc(Br)cc1F)c1ccccc1 (stereo not given)
10,52,CNCCC(Oc1ccc(Cl)cc1F)c1ccccc1 (stereo not given)
11,23,COCCCC/C(=N\OCCN)c1ccc(Br)cc1
12,15,COCCCC/C(=N\OCCN)c1ccc(I)cc1
13,19,CNCCC(Oc1ccc(Br)c(F)c1)c1ccccc1 (stereo not given)
14,24,CNCCC(Oc1ccc(Br)cc1)c1ccccc1 (stereo not given)

# Target: T1, Sodium-dependent serotonin transporter
# Assay: not given
# Format: cell-based, COS7
row,Structure (SMILES),IC50 [nM]
1,COC(=O)C1CCC2CC(O)C1N2c1ccccc1 (stereo not given),15
2,COC(=O)C1CCC2CC(O)C1N2c1ccc(Cl)c(Cl)c1 (stereo not given),5650

# Target: T1, Sodium-dependent serotonin transporter
# Assay: not given
# Remark: another data set of the same source
row,Structure (SMILES),Ki [nM]
1,Brc1ccc([C@@H]2CCNC[C@H]2COc2ccc3c(c2)OCO3)cc1,1.07
